Results from patent US20230092389A1, “UNIT DOSES, AEROSOLS, KITS, AND METHODS FOR TREATING HEART CONDITIONS BY PULMONARY ADMINISTRATION” (InCarda Therapeutics, Inc., priority 2017, published 2023).
Values joined by “and” are separate entries in the source; they are usually repeats but may differ in a detail not shown here. Equal values may be shown once. Read-outs that look alike come from different tables or passages of the source.

Experiments:
[1] = tested on: pigs with induced atrial fibrillation; experiment: Cardioversion of induced AF by IT flecainide, intact porcine model (Example 6); assay type: in vivo, Yorkshire pigs
Method: After 30-min recovery, the alternate intervention was tested. Times for conversion to normal sinus rhythm were compared.

porcine model = experiment: Slow versus rapid IV infusion, porcine model; assay type: in vivo, pig; conditions: slow (10 min) vs rapid (2 min) IV infusion
[2] = tested on: pigs with induced atrial fibrillation; experiment: ACh and burst-pacing induced AF duration, IT instillation, pigs (Example 5); assay type: in vivo, Yorkshire pigs; conditions: for AF duration, mean: n=3, no drug 11±0.6
Method: At one min after intrapericardial administration of ACh (1 ml of 100 mM), burst pacing was performed to initiate AF in the control cohort (FIG. 60). In the experimental cohort, after ACh and burst-pacing-induced AF, a stable period of 2 min of AF was allowed (FIG. 60). […] Table 12; FIG. 61).

[3] = tested on: beagle dogs with induced AF; experiment: Cardioversion of induced AF by IT or IV flecainide, anesthetized dogs (Example 7); assay type: in vivo; conditions: for Time to NSR, individual animals: cumulative dose 0.75-1.0 mg/kg, animals 001-006
Method: The study was carried out in anesthetized healthy adult beagle dogs with induced AF. Acute AF was induced using the combination of phenylephrine ([…]), to increase heterogeneity of atrial refractory periods via increased loading and through a baroreceptor-mediated increase in parasympathetic efferent activity, and right atrial burst pacing (40-50 Hz for ˜15 min). The AF induced using this method was, in general, stable for more than 30 mins.
The cardiac rhythm was monitored prior to, during AF, and up to 10 min post-dosing and/or until conversion to NSR.

healthy volunteers = conditions: in vivo
Method: (§1) 3 cohorts of subjects, in total 34 healthy adult volunteers, were recruited for Part A study.
(§2) Part B was an open label non-randomized crossover in a cohort of 6 evaluable healthy adult volunteers.
In addition, the effects of changing posture from semi-recumbent to seated upright, vice-versa and during inhalation on HR and BP were assessed (Cohort 5).

[4] = tested on: anesthetized Yorkshire pigs; experiment: PD (hemodynamics, ECG intervals) after IV or IT in anesthetized pigs (Example 5); assay type: in vivo
Method: All catheters were positioned under fluoroscopic guidance. […] Data are reported as means±SEM. Statistical analyses were performed using the SAS system (9.4) to apply ANOVA with a post-hoc Dunnett's test. Statistical significance was assumed at p<0.05.

[5] = tested on: dogs with induced atrial fibrillation; assay type: in vivo, dog
Method: Atrial Fibrillation Model: A venous catheter was placed in a peripheral vessel (i.e., cephalic) for administration of anesthetic. […] Following induction, animals were endotracheally intubated and mechanically ventilated (˜12 breaths/minute with a tidal volume of 200-300 mL). Subsequently, a cut-down on a jugular vein permitted introduction of a pacing lead into the right atrium. Transthoracic electrodes forming ECG lead II were placed. For test/vehicle article delivery, a 4F catheter was introduced through the trachea and wedged into a small airway, and a venous catheter was placed in a peripheral vessel (i.e., cephalic). […] Approximately 5 min after administration of this parasympathomimetic was started; the following experiments were performed: […] Observations were made for up to 10 minutes. […] Vehicle was only water.

clinical = conditions: human, in vivo; for Tmax: Tmax (min after EOI)
Source text: as §1, §2
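Throughout, for Tmax: measured in healthy adult volunteers.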

O=C(NCC1CCCCN1)c1cc(OCC(F)(F)F)ccc1OCC(F)(F)F (stereo not drawn) [flecainide]
reduction of AF duration ([1]; IT 0.75 mg/kg vs no-drug): 50% | time to conversion of AF to normal sinus rhythm ([1]; IT 0.75 mg/kg, n=3, no-drug 16.2±0.9): 8.1 ± 1.0 min | AF conversion in representative electrograms, time after IT flecainide ([1]; IT 1.5 mg/kg (FIG. 65)): 5 min | shortening in AF duration ([1]; IT 1.5 mg/kg vs no drug): 72% | time to conversion of AF to normal sinus rhythm (mean±SEM) ([1]; IT 1.5 mg/kg, n=5, no drug 12.3±1.9 min): 3.4 ± 0.3 min | dominant frequency of AF ([1]; IT 0.75 and 1.5 mg/kg): reduced the dominant frequency of AF | relation of AF duration to dose ([1]; IT 0.75 and 1.5 mg/kg): AF duration correlated with flecainide dose | time for plasma concentration to reach levels required for conversion ([1]; IT 0.75 and 1.5 mg/kg (FIG. 66A)): ≤ 10 min | MAP and ventricular rate after conversion ([1]; IT 1.5 or 0.75 mg/kg): restored MAP and ventricular rate to baseline values | effectiveness in rapidly converting AF to normal sinus rhythm ([1]; IT 1.5 or 0.75 mg/kg): 100% | correlation of venous plasma levels with QRS duration (porcine model): positively correlated with QRS duration | recurrence of AF after restoration of sinus rhythm ([2]; 30-min window of observation): no recurrence of AF occurred | reduction in AF duration from the untreated condition ([2]; IT 1.5 mg/kg): 73% | AF duration, mean ([2]; IT 1.5 mg/kg): 3 ± 0.2 min | AF duration, mean ([2]; IT 1.5 mg/kg, listed as Flecainide): 3 min | AF duration, individual pigs ([2]; IT 1.5 mg/kg, pigs 239, 236, 238, no drug 12, 10, 12): 3 min (2×) and 4 min | effects in BP, VR and LV dP/dtmax upon conversion, IV vs IT ([3]; FIG. 69): Flecainide given IV caused greater effects | dogs converted from AF to NSR ([3]; IT): 6/6 | representative ECG: conversion of AF to NSR ([3]; IT 0.75 mg/kg (FIGS. 68A-D)): conversion of AF to NSR | Time to NSR, individual animals ([3]; IT, cumulative IT dose 0.75 mg/kg): 12 s and 23 s and 62 s | Time to NSR, individual animals ([3]; IT, cumulative IT dose 0.75 (0.25 + 0.5) mg/kg): 147 s and 52 s | Time to NSR, individual animals ([3]; IT, cumulative IT dose 1.0 (0.75 + 0.25) mg/kg): 83 s | Time to NSR, Mean ± SEM ([3]; IT, mean dose 0.79 ± 0.04 mg/kg, 6 dogs, 0.04 mg/kg): 63 ± 18 s | dogs converted from AF to NSR ([3]; IV bolus): 2/2 | time to conversion of AF to NSR ([3]; IV bolus): 29 s | sufficiency of LV (left atrium) levels to terminate AF ([3]; pulmonary delivery): sufficient to rapidly terminate AF | dose dependence of magnitude of HR increases (healthy volunteers): not dose-dependent | magnitude of blood pressure changes vs placebo (healthy volunteers): similar | HR (healthy volunteers; iv, 2 mg/kg): An increase in HR was observed | systolic and diastolic BP (healthy volunteers; iv, 2 mg/kg): Decreases in systolic and diastolic BP | QRS duration ([4]; IT 0.75 mg/kg, 2 min, baseline 58±1.8 ms): 64 ± 1.6 ms | QRS duration ([4]; IT 0.75 mg/kg, 5 min, baseline 58±1.8 ms): 65 ± 1.7 ms | QRS duration ([4]; IT 0.75 mg/kg, 30 min): 58 ± 0.9 ms | mean arterial pressure ([4]; IT 0.75 mg/kg, baseline 111±3.6 mmHg, p=0.9112): not significantly altered across 30 min | heart rate ([4]; IT 0.75 mg/kg, baseline 111±6.4 bpm, p=0.9970): not significantly altered across 30 min | PR interval ([4]; IT 0.75 mg/kg, baseline 130±5.3 ms, p=0.9351): not significantly changed across 30 min | JTc interval ([4]; IT 0.75 mg/kg, baseline 354±12.0 ms, p=0.7605): not significantly changed across 30 min | QTc interval ([4]; IT 0.75 mg/kg, baseline 435±12.9 ms, p=0.5505): not significantly changed across 30 min | QRS duration ([4]; IT 1.5 mg/kg, 2 min, baseline 57±0.4 ms): 68 ± 1.9 ms | QRS duration ([4]; IT 1.5 mg/kg, 5 min): 69 ± 2.2 ms | QRS duration ([4]; IT 1.5 mg/kg, 10 min): 67 ± 1.7 ms | QRS duration ([4]; IT 1.5 mg/kg, 15 min): 64 ± 1.3 ms | QRS duration ([4]; IT 1.5 mg/kg, 30 min): 60 ± 0.9 ms | mean arterial pressure ([4]; IT 1.5 mg/kg, baseline 108±9.4 mmHg, p=0.9894): not significantly altered across 30 min | heart rate ([4]; IT 1.5 mg/kg, baseline 118±13.2 bpm, p=0.9999): not significantly altered across 30 min | PR interval ([4]; IT 1.5 mg/kg, baseline 127±2.3 ms, p=0.0819): not significantly changed across 30 min | JTc interval ([4]; IT 1.5 mg/kg, baseline 364±11.5 ms, p=0.9968): not significantly changed across 30 min | QTc interval ([4]; IT 1.5 mg/kg, baseline 436±7.1 ms, p=0.1510): not significantly changed across 30 min | heart rate ([4]; IV 2 mg/kg over 2 min, baseline 103±1.9 bpm, p=0.9936): not significantly altered across 30 min | QRS duration ([4]; IV 2 mg/kg, 2 min, baseline 58±1.9 ms): 77 ± 6.2 ms | QRS duration ([4]; IV 2 mg/kg, 5 min, baseline 58±1.9 ms): 76 ± 4.8 ms | QRS duration ([4]; IV 2 mg/kg, 30 min): 59 ± 3.0 ms | mean arterial pressure ([4]; IV 2 mg/kg, baseline 105±6.7 mmHg, p=0.8852): not significantly altered across 30 min | PR interval ([4]; IV 2 mg/kg, baseline 127±7.8 ms, p=0.5161): not significantly changed across 30 min | JTc interval ([4]; IV 2 mg/kg, baseline 367±7.4 ms, p=0.9686): not significantly changed across 30 min | QTc interval ([4]; IV 2 mg/kg, baseline 442±7.9 ms, p=0.35): not significantly changed across 30 min | ECG trace: Afib conversion ([5]; 2 mg/kg (FIG. 12)): Afib converting as soon as dosing occurred | ECG trace: Afib conversion ([5]; 4 mg/kg by intra-tracheal instillation (FIG. 11)): Afib converting into normal sinus rhythm | ventricular rate ([5]; large pulmonary doses): slower ventricular rates | effect on induced atrial fibrillation ([5]; pulmonary (IT) administration): rapidly converted the Atrial Fibrillation to normal sinus rhythm | conversion of induced atrial fibrillation to normal sinus rhythm ([5]; pulmonary dose 2-4 mg/kg body weight): converted the induced atrial fibrillation to normal sinus rhythm | cardiovascular effect when given by intratracheal instillation ([5]; summary of Example 2): clear cardiovascular effect | pH of solution in water (2.6 mg/mL solution): 5.0 | appearance of solution (diltiazem hydrochloride 50 mg/ml, flecainide acetate 30 mg/ml in distilled water): clear with no visible particulate matter | half-life (clinical; both): 3.5 to 4.2 min | half-life (clinical; inhaled or intranasal, 30 mg): 4.67 min | Tmax (clinical; inhaled or intranasal, 30 mg): ≤ 1 min | half-life (clinical; iv, 2 mg/kg): 4.28 min | Tmax (clinical; iv, 2 mg/kg): 1 to 60 min
